{"source": "patent US12479847B2", "about": "(DANA-FARBER CANCER INSTITUTE, INC., priority 2019, dated 2025)", "test_in_all_cases": "KINOMEscan (ScanMAX) kinase profiling", "assay_type_in_all_cases": "binding", "key": {"[1]": {"target": "T1, panel of 468 kinases (Homo sapiens, UniProt P42336, H1047L)", "T1 construct": "purchased KINOMEscan (ScanMAX) service", "T1 sequence (P42336 whole entry H1047L)": "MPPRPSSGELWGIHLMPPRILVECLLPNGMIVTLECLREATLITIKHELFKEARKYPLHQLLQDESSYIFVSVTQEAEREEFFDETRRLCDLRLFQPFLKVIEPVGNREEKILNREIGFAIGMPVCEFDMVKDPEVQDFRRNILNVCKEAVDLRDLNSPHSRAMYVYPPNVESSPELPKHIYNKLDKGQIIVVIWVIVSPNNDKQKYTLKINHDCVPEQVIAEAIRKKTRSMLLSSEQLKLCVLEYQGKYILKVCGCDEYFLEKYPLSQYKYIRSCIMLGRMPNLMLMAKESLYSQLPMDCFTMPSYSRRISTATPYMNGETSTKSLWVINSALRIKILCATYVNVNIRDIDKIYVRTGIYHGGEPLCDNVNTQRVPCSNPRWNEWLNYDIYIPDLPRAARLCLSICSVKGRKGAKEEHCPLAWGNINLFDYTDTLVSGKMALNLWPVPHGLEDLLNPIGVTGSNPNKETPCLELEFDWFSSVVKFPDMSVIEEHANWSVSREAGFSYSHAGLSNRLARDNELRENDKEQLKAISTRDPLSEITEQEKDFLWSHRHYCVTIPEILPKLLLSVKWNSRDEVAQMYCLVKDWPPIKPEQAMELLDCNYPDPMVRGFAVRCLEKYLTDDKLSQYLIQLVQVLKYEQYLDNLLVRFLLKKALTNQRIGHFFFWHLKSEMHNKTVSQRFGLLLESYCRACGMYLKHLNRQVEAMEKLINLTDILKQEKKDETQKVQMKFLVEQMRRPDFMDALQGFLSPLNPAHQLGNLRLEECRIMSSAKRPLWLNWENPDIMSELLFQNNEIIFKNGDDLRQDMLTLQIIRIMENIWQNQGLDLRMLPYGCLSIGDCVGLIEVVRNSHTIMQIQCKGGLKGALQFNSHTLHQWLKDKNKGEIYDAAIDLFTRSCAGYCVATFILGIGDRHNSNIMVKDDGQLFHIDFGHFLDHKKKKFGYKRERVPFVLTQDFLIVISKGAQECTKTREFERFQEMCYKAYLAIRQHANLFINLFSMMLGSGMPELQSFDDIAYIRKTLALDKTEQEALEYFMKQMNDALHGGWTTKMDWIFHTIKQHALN", "details": "PIK3CA(H1047L); 1 μM; read-out: % control", "procedure": "(§1) The kinase selectivity of inventive compounds 12, 75, and 77 was evaluated by KINOMEscan®. KINOMEscan® (ScanMAX™) analysis was performed against a near comprehensive panel of 468 kinases. The control percentage (% control) for inventive compounds at 1 μM in DMSO was determined by Equation 1: % control=(inventive compound−positive control)/(negative control−positive control)×100%, Equation 1\n(§2) wherein the positive control is a compound with a % control value of 0% relative light units (RLU), and the negative control (i.e., DMSO) has % control value of 100% RLU. The enzyme selectivity in the present invention is defined as follows: inventive compounds are considered active for an enzyme when the observed % control is less than 35% (<35%)."}, "[2]": {"target": "T2, panel of 468 kinases (Homo sapiens, UniProt Q13153)", "T2 construct": "purchased KINOMEscan (ScanMAX) service", "T2 sequence (Q13153 whole entry)": "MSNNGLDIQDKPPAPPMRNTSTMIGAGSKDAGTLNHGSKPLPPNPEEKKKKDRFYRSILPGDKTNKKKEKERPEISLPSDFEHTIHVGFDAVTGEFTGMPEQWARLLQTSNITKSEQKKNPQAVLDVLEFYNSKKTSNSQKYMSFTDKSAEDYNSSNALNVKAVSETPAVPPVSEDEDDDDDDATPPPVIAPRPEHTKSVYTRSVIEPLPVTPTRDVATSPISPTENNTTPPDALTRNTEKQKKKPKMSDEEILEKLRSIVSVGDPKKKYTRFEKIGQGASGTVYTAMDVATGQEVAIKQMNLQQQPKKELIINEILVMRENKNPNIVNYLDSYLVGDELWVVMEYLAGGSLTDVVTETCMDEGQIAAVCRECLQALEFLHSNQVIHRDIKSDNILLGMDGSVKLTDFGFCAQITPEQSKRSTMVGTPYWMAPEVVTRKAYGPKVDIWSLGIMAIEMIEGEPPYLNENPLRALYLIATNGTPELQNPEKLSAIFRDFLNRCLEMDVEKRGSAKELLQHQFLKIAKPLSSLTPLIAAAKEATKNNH", "details": "PAK1; 1 μM; read-out: % control", "procedure": "as §1, §2"}, "[3]": {"target": "T3, panel of 468 kinases (Homo sapiens, UniProt P15735)", "T3 construct": "purchased KINOMEscan (ScanMAX) service", "T3 sequence (P15735 1-406)": "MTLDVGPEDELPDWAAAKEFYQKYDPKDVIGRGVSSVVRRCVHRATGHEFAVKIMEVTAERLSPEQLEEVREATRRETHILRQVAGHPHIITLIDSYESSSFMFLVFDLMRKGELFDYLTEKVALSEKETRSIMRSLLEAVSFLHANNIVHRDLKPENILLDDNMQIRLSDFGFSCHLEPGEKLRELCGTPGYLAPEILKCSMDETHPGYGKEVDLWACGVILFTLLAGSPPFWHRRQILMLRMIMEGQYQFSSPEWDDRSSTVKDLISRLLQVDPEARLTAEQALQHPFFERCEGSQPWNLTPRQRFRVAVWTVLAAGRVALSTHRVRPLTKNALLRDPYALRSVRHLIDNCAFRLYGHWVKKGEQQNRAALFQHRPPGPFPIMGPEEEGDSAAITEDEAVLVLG", "details": "PHKG2; 1 μM; read-out: % control", "procedure": "as §1, §2"}, "[4]": {"target": "T4, panel of 468 kinases (Homo sapiens, UniProt P49137)", "T4 construct": "purchased KINOMEscan (ScanMAX) service", "T4 sequence (P49137 whole entry)": "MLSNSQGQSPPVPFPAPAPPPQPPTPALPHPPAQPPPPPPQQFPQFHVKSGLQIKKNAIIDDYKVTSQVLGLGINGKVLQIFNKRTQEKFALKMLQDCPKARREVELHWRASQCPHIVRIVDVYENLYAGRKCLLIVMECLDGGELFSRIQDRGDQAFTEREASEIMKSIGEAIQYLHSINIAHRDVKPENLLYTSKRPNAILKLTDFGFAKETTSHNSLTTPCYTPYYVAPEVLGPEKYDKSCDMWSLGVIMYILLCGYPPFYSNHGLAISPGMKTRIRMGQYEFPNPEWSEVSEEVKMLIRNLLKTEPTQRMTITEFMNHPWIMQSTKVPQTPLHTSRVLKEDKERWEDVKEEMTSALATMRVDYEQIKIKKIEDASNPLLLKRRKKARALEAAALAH", "details": "MAPKAPK2; 1 μM; read-out: % control", "procedure": "as §1, §2"}, "[5]": {"target": "T5, panel of 468 kinases (Homo sapiens, UniProt P42679)", "T5 construct": "purchased KINOMEscan (ScanMAX) service", "T5 sequence (P42679 1-507)": "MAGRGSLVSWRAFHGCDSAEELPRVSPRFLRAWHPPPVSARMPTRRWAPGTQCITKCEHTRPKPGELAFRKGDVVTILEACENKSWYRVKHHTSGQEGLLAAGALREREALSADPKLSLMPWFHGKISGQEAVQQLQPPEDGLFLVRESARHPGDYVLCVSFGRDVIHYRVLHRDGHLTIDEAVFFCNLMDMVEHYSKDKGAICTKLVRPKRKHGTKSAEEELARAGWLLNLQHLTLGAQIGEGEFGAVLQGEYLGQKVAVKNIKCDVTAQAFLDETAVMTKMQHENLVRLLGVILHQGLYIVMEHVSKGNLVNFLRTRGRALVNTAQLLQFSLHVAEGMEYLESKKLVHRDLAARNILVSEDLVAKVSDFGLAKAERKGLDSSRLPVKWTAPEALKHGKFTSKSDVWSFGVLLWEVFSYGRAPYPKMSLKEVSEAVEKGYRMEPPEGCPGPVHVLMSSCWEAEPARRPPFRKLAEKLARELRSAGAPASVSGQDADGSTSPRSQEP", "details": "CTK; 1 μM; read-out: % control", "procedure": "as §1, §2"}, "[6]": {"target": "T6, panel of 468 kinases (Homo sapiens, UniProt Q9UBF8)", "T6 construct": "purchased KINOMEscan (ScanMAX) service", "T6 sequence (Q9UBF8 whole entry)": "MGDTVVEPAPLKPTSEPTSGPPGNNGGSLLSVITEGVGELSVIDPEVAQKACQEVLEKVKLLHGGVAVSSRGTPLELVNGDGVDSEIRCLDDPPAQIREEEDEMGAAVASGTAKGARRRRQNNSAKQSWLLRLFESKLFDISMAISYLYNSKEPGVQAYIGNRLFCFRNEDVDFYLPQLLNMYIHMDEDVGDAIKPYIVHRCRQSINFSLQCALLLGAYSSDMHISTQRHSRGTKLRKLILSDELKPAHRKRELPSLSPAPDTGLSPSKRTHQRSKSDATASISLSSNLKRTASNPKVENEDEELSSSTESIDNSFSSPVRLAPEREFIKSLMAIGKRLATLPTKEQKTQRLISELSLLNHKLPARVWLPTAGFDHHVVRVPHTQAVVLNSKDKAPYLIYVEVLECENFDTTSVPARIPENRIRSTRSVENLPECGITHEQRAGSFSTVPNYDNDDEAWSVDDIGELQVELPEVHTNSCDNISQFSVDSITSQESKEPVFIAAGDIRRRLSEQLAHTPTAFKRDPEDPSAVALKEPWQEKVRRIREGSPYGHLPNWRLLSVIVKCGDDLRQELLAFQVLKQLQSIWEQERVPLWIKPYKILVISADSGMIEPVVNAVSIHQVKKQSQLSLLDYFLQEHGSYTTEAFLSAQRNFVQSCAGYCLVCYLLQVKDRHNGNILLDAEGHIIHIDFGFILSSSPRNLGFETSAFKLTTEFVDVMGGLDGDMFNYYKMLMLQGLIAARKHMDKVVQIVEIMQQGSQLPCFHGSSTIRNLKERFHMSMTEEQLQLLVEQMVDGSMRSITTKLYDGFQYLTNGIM", "details": "PIK4CB; 1 μM; read-out: % control", "procedure": "as §1, §2"}, "[7]": {"target": "T7, panel of 468 kinases (Homo sapiens, UniProt Q14164)", "T7 construct": "purchased KINOMEscan (ScanMAX) service", "T7 sequence (Q14164 1-716)": "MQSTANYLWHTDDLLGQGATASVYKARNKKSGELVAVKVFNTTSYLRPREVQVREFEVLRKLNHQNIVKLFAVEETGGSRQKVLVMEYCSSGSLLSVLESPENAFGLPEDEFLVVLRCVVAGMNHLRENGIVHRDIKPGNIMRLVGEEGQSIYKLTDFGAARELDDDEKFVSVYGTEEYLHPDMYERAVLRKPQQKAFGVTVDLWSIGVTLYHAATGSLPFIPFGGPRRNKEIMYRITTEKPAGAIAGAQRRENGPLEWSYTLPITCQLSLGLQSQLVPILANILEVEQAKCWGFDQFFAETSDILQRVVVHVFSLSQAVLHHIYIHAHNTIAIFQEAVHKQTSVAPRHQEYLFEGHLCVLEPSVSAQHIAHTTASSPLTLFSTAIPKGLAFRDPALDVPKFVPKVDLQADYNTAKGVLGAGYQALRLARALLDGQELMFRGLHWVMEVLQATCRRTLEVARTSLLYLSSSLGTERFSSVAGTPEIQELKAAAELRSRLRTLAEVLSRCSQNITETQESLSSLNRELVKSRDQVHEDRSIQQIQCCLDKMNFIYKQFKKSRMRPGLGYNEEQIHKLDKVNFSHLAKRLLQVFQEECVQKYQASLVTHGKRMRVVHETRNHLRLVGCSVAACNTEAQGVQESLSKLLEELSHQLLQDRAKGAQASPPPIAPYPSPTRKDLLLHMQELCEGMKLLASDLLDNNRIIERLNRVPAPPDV", "details": "IKK-epsilon; 1 μM; read-out: % control", "procedure": "as §1, §2"}, "[8]": {"target": "T8, panel of 468 kinases (Homo sapiens, UniProt P29597)", "T8 construct": "purchased KINOMEscan (ScanMAX) service", "T8 sequence (P29597 whole entry)": "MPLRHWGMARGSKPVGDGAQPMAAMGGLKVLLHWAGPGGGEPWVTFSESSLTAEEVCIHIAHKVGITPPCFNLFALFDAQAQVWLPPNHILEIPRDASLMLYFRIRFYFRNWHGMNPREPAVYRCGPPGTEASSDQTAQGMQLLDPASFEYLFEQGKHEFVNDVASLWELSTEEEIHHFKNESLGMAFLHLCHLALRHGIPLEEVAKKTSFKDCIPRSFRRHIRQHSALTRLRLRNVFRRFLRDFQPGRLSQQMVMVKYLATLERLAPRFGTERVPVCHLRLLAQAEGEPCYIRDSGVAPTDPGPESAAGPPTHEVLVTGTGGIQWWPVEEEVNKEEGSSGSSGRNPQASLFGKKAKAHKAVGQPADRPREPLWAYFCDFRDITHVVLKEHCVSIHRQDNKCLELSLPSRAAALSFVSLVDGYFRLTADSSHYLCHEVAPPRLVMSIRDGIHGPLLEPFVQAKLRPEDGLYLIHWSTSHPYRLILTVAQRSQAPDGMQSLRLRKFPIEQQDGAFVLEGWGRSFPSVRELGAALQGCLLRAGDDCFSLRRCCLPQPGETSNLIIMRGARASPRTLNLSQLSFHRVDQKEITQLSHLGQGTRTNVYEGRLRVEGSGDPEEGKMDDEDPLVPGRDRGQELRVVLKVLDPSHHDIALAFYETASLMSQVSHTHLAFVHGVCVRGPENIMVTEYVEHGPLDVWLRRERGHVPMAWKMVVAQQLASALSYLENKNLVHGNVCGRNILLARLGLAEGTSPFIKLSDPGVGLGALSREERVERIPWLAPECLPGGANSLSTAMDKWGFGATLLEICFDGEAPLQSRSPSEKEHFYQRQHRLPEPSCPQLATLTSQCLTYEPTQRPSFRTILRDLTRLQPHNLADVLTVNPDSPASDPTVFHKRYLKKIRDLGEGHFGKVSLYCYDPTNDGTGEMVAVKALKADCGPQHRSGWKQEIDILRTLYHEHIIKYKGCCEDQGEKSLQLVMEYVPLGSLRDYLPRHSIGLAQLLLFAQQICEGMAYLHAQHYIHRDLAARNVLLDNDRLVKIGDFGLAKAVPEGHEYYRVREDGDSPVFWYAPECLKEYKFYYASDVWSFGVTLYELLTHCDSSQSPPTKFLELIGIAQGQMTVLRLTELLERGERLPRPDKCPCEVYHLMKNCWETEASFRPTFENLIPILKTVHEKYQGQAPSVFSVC", "details": "1 μM, read-out: % control", "procedure": "as §1, §2"}}, "note": "Where two headings read alike, the source gives them in different places.", "data": [{"compound": "CNc1nc(Nc2ccc(C(=O)N3CCC(N4CCOCC4)CC3)c3c2OCO3)nc2[nH]cc(Cl)c12", "note": "[Compound 75, (7-((5-chloro-4-(methylamino)-7H-pyrrolo[2,3-d]pyrimidin-2-yl)amino)benzo[d][1,3]dioxol-4-yl)(4-morpholinopiperidin-1-yl)methanone]", "values": [{"measurement": "remaining binding at 1 µM", "setting": "[1]", "result": 86, "unit": "%"}, {"measurement": "remaining binding at 1 µM", "setting": "[2]", "result": 100, "unit": "%"}, {"measurement": "remaining binding at 1 µM", "setting": "[3]", "result": 5.3, "unit": "%"}, {"measurement": "remaining binding at 1 µM", "setting": "[4]", "result": 31, "unit": "%"}, {"measurement": "remaining binding at 1 µM", "setting": "[5]", "result": 100, "unit": "%"}, {"measurement": "remaining binding at 1 µM", "setting": "[6]", "result": 100, "unit": "%"}, {"measurement": "remaining binding at 1 µM", "setting": "[7]", "result": 47, "unit": "%"}, {"measurement": "remaining binding at 1 µM", "setting": "[8]; TYK2(JH1domain-catalytic)", "result": 46, "unit": "%"}, {"measurement": "remaining binding at 1 µM", "setting": "[8]; TYK2(JH2domain-pseudokinase)", "result": 100, "unit": "%"}]}, {"compound": "CNc1nc(Nc2ccc(S(=O)(=O)N3CCC(N4CCOCC4)CC3)cc2OC)nc2[nH]cc(Cl)c12", "note": "[Compound 12, 5-chloro-N2-(2-methoxy-4-((4-morpholinopiperidin-1-yl)sulfonyl)phenyl)-N4-methyl-7H-pyrrolo[2,3-d]pyrimidine-2,4-diamine]", "values": [{"measurement": "remaining binding at 1 µM", "setting": "[1]", "result": 56, "unit": "%"}, {"measurement": "remaining binding at 1 µM", "setting": "[2]", "result": 100, "unit": "%"}, {"measurement": "remaining binding at 1 µM", "setting": "[3]", "result": 11, "unit": "%"}, {"measurement": "remaining binding at 1 µM", "setting": "[4]", "result": 72, "unit": "%"}, {"measurement": "remaining binding at 1 µM", "setting": "[5]", "result": 100, "unit": "%"}, {"measurement": "remaining binding at 1 µM", "setting": "[6]", "result": 100, "unit": "%"}, {"measurement": "remaining binding at 1 µM", "setting": "[7]", "result": 98, "unit": "%"}, {"measurement": "remaining binding at 1 µM", "setting": "[8]; TYK2(JH1domain-catalytic)", "result": 90, "unit": "%"}, {"measurement": "remaining binding at 1 µM", "setting": "[8]; TYK2(JH2domain-pseudokinase)", "result": 88, "unit": "%"}]}, {"compound": "CNc1nc(Nc2ccc(P3(=O)CCN(C4CCOCC4)CC3)cc2OC)nc2[nH]cc(Cl)c12", "note": "[Compound 77, 4-(4-((5-chloro-4-(methylamino)-7H-pyrrolo[2,3-d]pyrimidin-2-yl)amino)-3-methoxyphenyl)-1-(tetrahydro-2H-pyran-4-yl)-1,4-azaphosphinane 4-oxide]", "values": [{"measurement": "remaining binding at 1 µM", "setting": "[1]", "result": 61, "unit": "%"}, {"measurement": "remaining binding at 1 µM", "setting": "[2]", "result": 100, "unit": "%"}, {"measurement": "remaining binding at 1 µM", "setting": "[3]", "result": 1.9, "unit": "%"}, {"measurement": "remaining binding at 1 µM", "setting": "[4]", "result": 100, "unit": "%"}, {"measurement": "remaining binding at 1 µM", "setting": "[5]", "result": 99, "unit": "%"}, {"measurement": "remaining binding at 1 µM", "setting": "[6]", "result": 100, "unit": "%"}, {"measurement": "remaining binding at 1 µM", "setting": "[7]", "result": 89, "unit": "%"}, {"measurement": "remaining binding at 1 µM", "setting": "[8]; TYK2(JH1domain-catalytic)", "result": 66, "unit": "%"}, {"measurement": "remaining binding at 1 µM", "setting": "[8]; TYK2(JH2domain-pseudokinase)", "result": 82, "unit": "%"}]}]}
